Our source for the IC50 values is PMC10147936, “Dietary factors potentially impacting thiaminase I-mediated thiamine deficiency” (Scientific Reports, 2023).

The target in the experiment is T1, thiaminase I from C. botulinum (BcmE) (Clostridium botulinum, UniProt A5HZW3).
T1 construct: gene CBO0770
The experiment in a line: biochemical.

pIC50: −log10 of the molar value.

T1 sequence (A5HZW3 1-404): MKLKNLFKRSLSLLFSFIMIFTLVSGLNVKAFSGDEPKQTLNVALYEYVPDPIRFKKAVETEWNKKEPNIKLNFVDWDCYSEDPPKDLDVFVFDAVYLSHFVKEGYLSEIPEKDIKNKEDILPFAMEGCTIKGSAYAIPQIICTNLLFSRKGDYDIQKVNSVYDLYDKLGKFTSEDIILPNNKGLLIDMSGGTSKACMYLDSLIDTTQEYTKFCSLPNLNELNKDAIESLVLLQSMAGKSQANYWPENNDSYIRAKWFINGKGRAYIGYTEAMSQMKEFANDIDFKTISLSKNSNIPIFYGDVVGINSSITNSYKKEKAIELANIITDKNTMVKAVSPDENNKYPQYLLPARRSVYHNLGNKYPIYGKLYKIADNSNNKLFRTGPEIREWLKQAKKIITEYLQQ

For `O=C1O[C@H]([C@@H](O)CO)C(O)=C1O` [ascorbic acid], the pIC50 (in general, the IC50 on a negative log10 scale, so that one unit is a factor of ten) is 6.58.
